System: patients with refractory metastatic colorectal cancer (mCRC)
Test: PFS, OS and disease control in the training (evaluation) cohort of refractory mCRC patients receiving TAS-102 (n=52, Japan), by baseline characteristics, SNP genotype and toxicity
Assay type: in vivo, human
Details: for OS HR (95% CI)‡ / PFS HR (95% CI) ‡: multivariable; for OS HR (95% CI)† / PFS HR (95% CI) † / OS HR (95% CI) / PFS HR (95% CI): univariate
Procedure: All patients underwent the treatment in salvage-line setting. […]
(§1) Genomic DNA was extracted from peripheral whole blood in patients of all cohorts using the QIAmp Kit (Qiagen, Valencia, Calif., USA) according to the manufacturer's protocol (www.qiagen.com). The candidate SNPs were genotyped using PCR-based direct DNA sequence analysis by ABI 3100A Capillary Genetic Analyzer and Sequencing Scanner v1.0 (Applied Biosystems). Amplification of extracted DNA was carried out using both forward and reverse primers for each gene polymorphism as shown in Table 1. […] The investigators analyzing SNPs were blinded to the clinical data of the study patients.
The primary endpoint in this study was progression-free survival (PFS), and the secondary endpoints were overall survival (OS) and disease control rate (DCR). PFS was calculated from the date of starting treatment to the first observation of disease progression or death from any cause. If a patient had no disease progression or death, PFS was censored at the date of last follow up. OS was calculated from the date of starting treatment until the date of death from any cause or the date of the last follow-up, at which point OS was censored. The disease control rate (DCR) was defined as the proportion of patients who achieved a stable disease (SD) or […] according to RECISTv1.1. Chi-square test was used to examine the difference in baseline patient characteristics among the three cohorts. Allelic distribution of all SNPs by ethnicity for deviation from Hardy-Weinberg equilibrium and the allelic frequencies of SNPs were tested using the Chi-square tests with one degree of freedom. The associations between candidate SNPs and disease control, and toxicities were examined using contingency tables and Fisher's exact test. The associations of SNPs with PFS and OS were analysed using Kaplan-Meier curves and the log-rank test. Because the true mode of inheritance of candidate SNPs was not established yet, a codominant or dominant genetic model if appropriate was considered.
All patients underwent the treatment in salvage-line setting. […] In all patients, adverse events were graded according to the Common Terminology Criteria for Adverse Events, version 4.0. […]
as §1, with “tested” for “genotyped”, “Biosystems).” for “Biosystems). Amplification of extracted DNA was carried out using both forward and reverse primers for each gene polymorphism as shown in Table 1.”, “data.” for “data of the study patients.”
The primary endpoint in this study was progression-free survival (PFS), and the secondary endpoints were overall survival (OS) and disease control rate (DCR).

[1] = Che1 rs1564796 T/C and C/C grouped together
[2] = Che1 rs1564796 T/C and C/C grouped vs T/T
[3] = Evaluation cohort, Anemia grade <3
[4] = Evaluation cohort, Anemia grade ≥3
[5] = Evaluation cohort, Anemia grade ≥3 vs <3
[6] = Evaluation cohort, Anorexia grade <3
[7] = Evaluation cohort, Anorexia grade ≥3
[8] = Evaluation cohort, Anorexia grade ≥3 vs <3
[9] = Evaluation cohort, Diarrhea grade <3
[10] = Evaluation cohort, Diarrhea grade ≥3
[11] = Evaluation cohort, Diarrhea grade ≥3 vs <3
[12] = Evaluation cohort, Leukopenia grade <3
[13] = Evaluation cohort, Leukopenia grade ≥3
[14] = Evaluation cohort, Leukopenia grade ≥3 vs <3
[15] = Evaluation cohort, Nausea grade <3
[16] = Evaluation cohort, Nausea grade ≥3
[17] = Evaluation cohort, Nausea grade ≥3 vs <3
[18] = Evaluation cohort, Neutropenia grade <3
[19] = Evaluation cohort, Neutropenia grade ≥3
[20] = Evaluation cohort, Neutropenia grade ≥3 vs <3
[21] = FANCD2 rs6792811 G/A and G/G grouped together
[22] = FANCD2 rs6792811 G/A and G/G grouped vs A/A

Trifluridine/tipiracil [TAS-102]
OS HR (95% CI)‡ (CHEK2 rs22236142 G/C vs G/G): 0.55 (0.19, 1.58) | PFS HR (95% CI) ‡ (CHEK2 rs22236142 G/C vs G/G): 1.13 (0.55, 2.34) | OS HR (95% CI)† (CHEK2 rs22236142 G/C vs G/G): 0.78 (0.29, 2.11) | PFS HR (95% CI) † (CHEK2 rs22236142 G/C vs G/G): 1.43 (0.72, 2.84) | OS median, months (95% CI) (CHEK2 rs22236142 G/G): 8.1 (4.4, 14.8+) months | PFS median, months (95% CI) (CHEK2 rs22236142 G/G): 2.9 (1.6, 4.9) months | OS median, months (95% CI) (Che1 rs1045056 T/C): 12.4 (5.3, 12.4+) months | PFS median, months (95% CI) (Che1 rs1045056 T/C): 2.1 (1.2, 4.2) months | OS HR (95% CI)‡ (Che1 rs1045056 T/C vs T/T): 0.60 (0.19, 1.85) | PFS HR (95% CI) ‡ (Che1 rs1045056 T/C vs T/T): 1.70 (0.80, 3.64) | OS HR (95% CI)† (Che1 rs1045056 T/C vs T/T): 0.55 (0.18, 1.63) | PFS HR (95% CI) † (Che1 rs1045056 T/C vs T/T): 1.25 (0.61, 2.57) | OS median, months (95% CI) (Che1 rs1045056 T/T): 7.2 (5.4, 15.6+) months | PFS median, months (95% CI) (Che1 rs1045056 T/T): 2.9 (1.9, 3.5) months | OS median, months (95% CI) [1]: 12.4 (5.3, 12.4+) months | PFS median, months (95% CI) [1]: 2.1 (1.2, 4.6) months | OS HR (95% CI)‡ [2]: 0.60 (0.19, 1.87) | PFS HR (95% CI) ‡ [2]: 1.41 (0.65, 3.07) | OS HR (95% CI)† [2]: 0.56 (0.19, 1.68) | PFS HR (95% CI) † [2]: 1.17 (0.57, 2.40) | OS median, months (95% CI) (Che1 rs1564796 T/T): 7.2 (5.4, 15.6+) months | PFS median, months (95% CI) (Che1 rs1564796 T/T): 2.9 (2.0, 3.5) months | OS median, months (95% CI) [3]: 8.3 (5.7, 15.6+) months | PFS median, months (95% CI) [3]: 2.5 (2.0, 3.4) months | OS median, months (95% CI) [4]: 6.3 (2.0, 14.8+) months | PFS median, months (95% CI) [4]: 3.4 (1.5, 6.0+) months | OS HR (95% CI) [5]: 1.87 (0.74, 4.74) | PFS HR (95% CI) [5]: 0.70 (0.32, 1.53) | OS median, months (95% CI) [6]: 8.1 (5.7, 12.4+) months | PFS median, months (95% CI) [6]: 2.9 (2.1, 3.4) months | OS median, months (95% CI) [7]: 8.7 (1.4, 15.6+) months | PFS median, months (95% CI) [7]: 2.7 (0.9, 11.3) months | OS HR (95% CI) [8]: 0.85 (0.27, 2.69) | PFS HR (95% CI) [8]: 0.67 (0.27, 1.69) | OS median, months (95% CI) [9]: 8.3 (6.3, 12.4) months | PFS median, months (95% CI) [9]: 2.5 (2.0, 3.4) months | OS median, months (95% CI) [10]: 5.7 (2.0, 14.8+) months | PFS median, months (95% CI) [10]: 2.9 (1.8, 6.0+) months | OS HR (95% CI) [11]: 1.49 (0.49, 4.53) | PFS HR (95% CI) [11]: 0.88 (0.35, 2.26) | OS median, months (95% CI) [12]: 8.3 (4.9, 15.6+) months | PFS median, months (95% CI) [12]: 2.5 (1.9, 3.5) months | OS median, months (95% CI) [13]: 8.1 (5.7, 10.7+) months | PFS median, months (95% CI) [13]: 3.4 (1.6, 4.6) months | OS HR (95% CI) [14]: 0.73 (0.26, 2.01) | PFS HR (95% CI) [14]: 0.93 (0.45, 1.90) | OS median, months (95% CI) [15]: 8.1 (6.3, 14.8+) months | PFS median, months (95% CI) [15]: 3.3 (2.3, 3.7) months | OS median, months (95% CI) [16]: 5.7 (2.7, 12.4) months | PFS median, months (95% CI) [16]: 1.9 (1.6, 2.7) months | OS HR (95% CI) [17]: 1.58 (0.65, 3.83) | PFS HR (95% CI) [17]: 1.24 (0.62, 2.49) | OS median, months (95% CI) [18]: 6.3 (3.4, 15.6+) months | PFS median, months (95% CI) [18]: 2.1 (1.8, 3.0) months | OS median, months (95% CI) [19]: 8.3 (6.3, 14.8+) months | PFS median, months (95% CI) [19]: 3.4 (1.8, 4.9) months | OS HR (95% CI) [20]: 0.59 (0.24, 1.43) | PFS HR (95% CI) [20]: 0.68 (0.37, 1.28) | OS median, months (95% CI) (FANCD2 rs2272125 T/G): 7.2 (2.7, 7.8+) months | PFS median, months (95% CI) (FANCD2 rs2272125 T/G): 2.8 (1.6, 6.6+) months | OS HR (95% CI)‡ (FANCD2 rs2272125 T/G vs T/T): 1.38 (0.39, 4.90) | PFS HR (95% CI) ‡ (FANCD2 rs2272125 T/G vs T/T): 0.91 (0.35, 2.35) | OS HR (95% CI)† (FANCD2 rs2272125 T/G vs T/T): 1.66 (0.47, 5.83) | PFS HR (95% CI) † (FANCD2 rs2272125 T/G vs T/T): 0.98 (0.38, 2.51) | OS median, months (95% CI) (FANCD2 rs2272125 T/T): 8.3 (5.7, 15.6+) months | PFS median, months (95% CI) (FANCD2 rs2272125 T/T): 2.7 (2.1, 3.4) months | OS median, months (95% CI) (FANCD2 rs6792811 A/A): 8.7 (5.4, 14.8+) months | PFS median, months (95% CI) (FANCD2 rs6792811 A/A): 2.9 (2.1, 4.2) months | OS median, months (95% CI) [21]: 7.2 (3.3, 15.6+) months | PFS median, months (95% CI) [21]: 2.1 (1.5, 3.4) months | OS HR (95% CI)‡ [22]: 1.17 (0.48, 2.87) | PFS HR (95% CI) ‡ [22]: 1.43 (0.74, 2.74) | OS HR (95% CI)† [22]: 1.27 (0.52, 3.08) | PFS HR (95% CI) † [22]: 1.29 (0.68, 2.47) | Median OS (months) (JPN TAS-102 cohort, XRCC3 rs861539 G/G (n = 35)): 6.3 months | OS median, months (95% CI) (PCNA rs25406 A/A): 8.7 (5.3, 10.7+) months | PFS median, months (95% CI) (PCNA rs25406 A/A): 2.5 (1.4, 4.6) months | OS HR (95% CI)‡ (PCNA rs25406 A/A vs G/G): 0.55 (0.17, 1.84) | PFS HR (95% CI) ‡ (PCNA rs25406 A/A vs G/G): 0.65 (0.28, 1.51) | OS HR (95% CI)† (PCNA rs25406 A/A vs G/G): 0.67 (0.21, 2.19) | PFS HR (95% CI) † (PCNA rs25406 A/A vs G/G): 0.89 (0.39, 2.03) | OS median, months (95% CI) (PCNA rs25406 Any A): 8.1 (5.7, 15.6+) months | PFS median, months (95% CI) (PCNA rs25406 Any A): 3.3 (2.1, 3.5) months | OS HR (95% CI)‡ (PCNA rs25406 Any A vs G/G): 0.54 (0.22, 1.35) | PFS HR (95% CI) ‡ (PCNA rs25406 Any A vs G/G): 0.53 (0.27, 1.06) | OS HR (95% CI)† (PCNA rs25406 Any A vs G/G): 0.64 (0.26, 1.56) | PFS HR (95% CI) † (PCNA rs25406 Any A vs G/G): 0.74 (0.39, 1.42) | OS median, months (95% CI) (PCNA rs25406 G/A): 8.1 (5.7, 15.6+) months | PFS median, months (95% CI) (PCNA rs25406 G/A): 3.4 (1.9, 3.7) months | OS HR (95% CI)‡ (PCNA rs25406 G/A vs G/G): 0.54 (0.19, 1.52) | PFS HR (95% CI) ‡ (PCNA rs25406 G/A vs G/G): 0.46 (0.21, 1.02)

From US20190233884A1 (University of Southern California, priority 2016, published 2019)
